{"source": "patent US20260285850A1", "about": "“SUBSTITUTED OXAZOLIDINONES AND IMIDAZOLINONES AS HERBICIDES” (FMC CORPORATION, priority 2023, published 2026)", "format_in_all_cases": "in vivo", "key": {"[1]": {"tested_on": "blackgrass (Alopecurus myosuroides)", "assay": "Test A postemergence application, visual injury rating 0-100", "outline": "(§1)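 Visual injury ratings (0, no effect; 100, complete control) were assigned relative to untreated plants 10 days after treatment. Test chemicals, formulated with a surfactant-containing non-phytotoxic solvent, were applied in loam-sand soil either as a directed soil spray before emergence or to emerged plants, and plants were kept in a greenhouse.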"}, "[2]": {"tested_on": "galium (catchweed bedstraw, Galium aparine)", "assay": "Test A postemergence application, visual injury rating 0-100", "outline": "as §1"}, "[3]": {"tested_on": "green foxtail (Setaria viridis)", "assay": "Test A postemergence application, visual injury rating 0-100", "outline": "as §1"}, "[4]": {"tested_on": "ryegrass, Italian (italian ryegrass, Lolium multiflorum)", "assay": "Test A postemergence application, visual injury rating 0-100", "outline": "as §1"}, "[5]": {"tested_on": "wheat (Triticum aestivum)", "assay": "Test A postemergence application, visual injury rating 0-100", "outline": "as §1"}, "[6]": {"tested_on": "soybean (Glycine max)", "assay": "Test A postemergence application, visual injury rating 0-100", "outline": "as §1"}, "[7]": {"tested_on": "horseweed (Erigeron canadensis)", "assay": "Test A postemergence application, visual injury rating 0-100", "outline": "as §1"}, "[8]": {"tested_on": "ragweed (common ragweed, Ambrosia artemisiifolia)", "assay": "Test A postemergence application, visual injury rating 0-100", "outline": "as §1"}, "[9]": {"tested_on": "oat, wild (wild oat, Avena fatua)", "assay": "Test A postemergence application, visual injury rating 0-100", "outline": "as §1"}, "[10]": {"tested_on": "corn (Zea mays)", "assay": "Test A postemergence application, visual injury rating 0-100", "outline": "as §1"}, "[11]": {"tested_on": "barnyardgrass (Echinochloa crus-galli)", "assay": "Test A postemergence application, visual injury rating 0-100", "outline": "as §1"}, "[12]": {"tested_on": "kochia (Bassia scoparia)", "assay": "Test A postemergence application, visual injury rating 0-100", "outline": "as §1"}, "[13]": {"tested_on": "palmer (palmer amaranth, palmer pigweed, Amaranthus palmeri)", "assay": "Test A postemergence application, visual injury rating 0-100", "outline": "as §1"}, "[14]": {"tested_on": "sedge, umbrella (small-flower umbrella sedge, Cyperus difformis)", "assay": "Test B flooded paddy test, visual plant response rating 0-100", "details": "250 g ai/ha, Flood, applied to paddy water, evaluated after 13 days", "outline": "(§2)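 Visual evaluation after 13 days. Water-applied treatment, 3 cm flood depth held constant, plants at 2-leaf stage at treatment.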"}, "[15]": {"tested_on": "rice (Oryza sativa)", "assay": "Test B flooded paddy test, visual plant response rating 0-100", "details": "250 g ai/ha, Flood, applied to paddy water, evaluated after 13 days", "outline": "as §2"}, "[16]": {"tested_on": "barnyardgrass (Echinochloa crusgalli)", "assay": "Test B flooded paddy test, visual plant response rating 0-100", "details": "250 g ai/ha, Flood, applied to paddy water, evaluated after 13 days", "outline": "as §2"}, "[17]": {"tested_on": "ducksalad (Heteranthera limosa)", "assay": "Test B flooded paddy test, visual plant response rating 0-100", "details": "250 g ai/ha, Flood, applied to paddy water, evaluated after 13 days", "outline": "as §2"}, "[18]": {"tested_on": "blackgrass (Alopecurus myosuroides)", "assay": "Test A preemergence soil spray, visual injury rating 0-100", "details": "10 days", "outline": "as §1"}, "[19]": {"tested_on": "green foxtail (Setaria viridis)", "assay": "Test A preemergence soil spray, visual injury rating 0-100", "details": "10 days", "outline": "as §1"}, "[20]": {"tested_on": "ryegrass, Italian (italian ryegrass, Lolium multiflorum)", "assay": "Test A preemergence soil spray, visual injury rating 0-100", "details": "10 days", "outline": "as §1"}, "[21]": {"tested_on": "wheat (Triticum aestivum)", "assay": "Test A preemergence soil spray, visual injury rating 0-100", "details": "10 days", "outline": "as §1"}, "[22]": {"tested_on": "soybean (Glycine max)", "assay": "Test A preemergence soil spray, visual injury rating 0-100", "details": "10 days", "outline": "as §1"}, "[23]": {"tested_on": "ragweed (common ragweed, Ambrosia artemisiifolia)", "assay": "Test A preemergence soil spray, visual injury rating 0-100", "details": "10 days", "outline": "as §1"}, "[24]": {"tested_on": "oat, wild (wild oat, Avena fatua)", "assay": "Test A preemergence soil spray, visual injury rating 0-100", "details": "10 days", "outline": "as §1"}, "[25]": {"tested_on": "corn (Zea mays)", "assay": "Test A preemergence soil spray, visual injury rating 0-100", "details": "10 days", "outline": "as §1"}, "[26]": {"tested_on": "barnyardgrass (Echinochloa crus-galli)", "assay": "Test A preemergence soil spray, visual injury rating 0-100", "details": "10 days", "outline": "as §1"}, "[27]": {"tested_on": "kochia (Bassia scoparia)", "assay": "Test A preemergence soil spray, visual injury rating 0-100", "details": "10 days", "outline": "as §1"}, "[28]": {"tested_on": "palmer (palmer amaranth, palmer pigweed, Amaranthus palmeri)", "assay": "Test A preemergence soil spray, visual injury rating 0-100", "details": "10 days", "outline": "as §1"}, "[29]": {"details": "62 g ai/ha, postemergence, 10 days, 0 = no effect, 100 = complete control"}, "[30]": {"details": "Postemergence, 16 g ai/ha, greenhouse 10 days, 0 no effect, 100 complete control"}, "[31]": {"details": "62 g ai/ha, 0 = no effect, 100 = complete control"}}}
{"smiles": "CC(C)OC(=O)C1=CCC(NC(=O)C2(C)CN(c3cc(F)cc(F)c3)C(=O)O2)C1", "note": "(stereo not shown) [Compound 99]", "values": [{"measurement": "Blackgrass plant response rating (0-100)", "setting": "[1]; [29]", "result": 0}, {"measurement": "Blackgrass plant response rating (0 to 100 scale)", "setting": "[1]; [30]", "result": 0}, {"measurement": "Galium plant response rating (0-100)", "setting": "[2]; [29]", "result": 20}, {"measurement": "Galium plant response rating (0 to 100 scale)", "setting": "[2]; [30]", "result": 20}, {"measurement": "Foxtail, Green plant response rating (0-100)", "setting": "[3]; [29]", "result": 0}, {"measurement": "Foxtail, Green plant response rating (0 to 100 scale)", "setting": "[3]; [30]", "result": 0}, {"measurement": "Ryegrass, Italian plant response rating (0-100)", "setting": "[4]; [29]", "result": 0}, {"measurement": "Ryegrass, Italian plant response rating (0 to 100 scale)", "setting": "[4]; [30]", "result": 0}, {"measurement": "Wheat plant response rating (0-100)", "setting": "[5]; [29]", "result": 10}, {"measurement": "Wheat plant response rating (0 to 100 scale)", "setting": "[5]; [30]", "result": 0}, {"measurement": "Soybean plant response rating (0-100)", "setting": "[6]; [29]", "result": 20}, {"measurement": "Soybean plant response rating (0 to 100 scale)", "setting": "[6]; [30]", "result": 0}, {"measurement": "Horseweed plant response rating (0-100)", "setting": "[7]; [29]", "result": 0}, {"measurement": "Horseweed plant response rating (0 to 100 scale)", "setting": "[7]; [30]", "result": 0}, {"measurement": "Ragweed plant response rating (0-100)", "setting": "[8]; [29]", "result": 0}, {"measurement": "Ragweed plant response rating (0 to 100 scale)", "setting": "[8]; [30]", "result": 0}, {"measurement": "Oat, Wild plant response rating (0-100)", "setting": "[9]; [29]", "result": 0}, {"measurement": "Oat, Wild plant response rating (0 to 100 scale)", "setting": "[9]; [30]", "result": 0}, {"measurement": "Corn plant response rating (0-100)", "setting": "[10]; [29]", "result": 0}, {"measurement": "Corn plant response rating (0 to 100 scale)", "setting": "[10]; [30]", "result": 0}, {"measurement": "Barnyardgrass plant response rating (0-100)", "setting": "[11]; [29]", "result": 0}, {"measurement": "Barnyardgrass plant response rating (0 to 100 scale)", "setting": "[11]; [30]", "result": 0}, {"measurement": "Kochia plant response rating (0-100)", "setting": "[12]; [29]", "result": 0}, {"measurement": "Kochia plant response rating (0 to 100 scale)", "setting": "[12]; [30]", "result": 0}, {"measurement": "Pigweed, Palmer plant response rating (0-100)", "setting": "[13]; [29]", "result": 0}, {"measurement": "Pigweed, Palmer plant response rating (0 to 100 scale)", "setting": "[13]; [30]", "result": 0}, {"measurement": "Plant response rating, Sedge, Umbrella (0 to 100 scale, 0 is no effect and 100 is complete control)", "setting": "[14]", "result": 0}, {"measurement": "Plant response rating, Rice (0 to 100 scale, 0 is no effect and 100 is complete control)", "setting": "[15]", "result": 0}, {"measurement": "Plant response rating, Barnyardgrass (0 to 100 scale, 0 is no effect and 100 is complete control)", "setting": "[16]", "result": 0}, {"measurement": "Plant response rating, Ducksalad (0 to 100 scale, 0 is no effect and 100 is complete control)", "setting": "[17]", "result": 0}, {"measurement": "Blackgrass plant response rating", "setting": "[18]; 16 g ai/ha, 0 to 100 scale", "result": 0}, {"measurement": "Blackgrass plant response rating (0-100)", "setting": "[18]; [31]", "result": 0}, {"measurement": "Foxtail, Green plant response rating", "setting": "[19]; 16 g ai/ha, 0 to 100 scale", "result": 0}, {"measurement": "Foxtail, Green plant response rating (0-100)", "setting": "[19]; [31]", "result": 40}, {"measurement": "Ryegrass, Italian plant response rating", "setting": "[20]; 16 g ai/ha, 0 to 100 scale", "result": 0}, {"measurement": "Ryegrass, Italian plant response rating (0-100)", "setting": "[20]; [31]", "result": 0}, {"measurement": "Wheat plant response rating", "setting": "[21]; 16 g ai/ha, 0 to 100 scale", "result": 0}, {"measurement": "Wheat plant response rating (0-100)", "setting": "[21]; [31]", "result": 0}, {"measurement": "Soybean plant response rating", "setting": "[22]; 16 g ai/ha, 0 to 100 scale", "result": 0}, {"measurement": "Soybean plant response rating (0-100)", "setting": "[22]; [31]", "result": 0}, {"measurement": "Ragweed plant response rating", "setting": "[23]; 16 g ai/ha, 0 to 100 scale", "result": 0}, {"measurement": "Ragweed plant response rating (0-100)", "setting": "[23]; [31]", "result": 0}, {"measurement": "Oat, Wild plant response rating", "setting": "[24]; 16 g ai/ha, 0 to 100 scale", "result": 20}, {"measurement": "Oat, Wild plant response rating (0-100)", "setting": "[24]; [31]", "result": 50}, {"measurement": "Corn plant response rating", "setting": "[25]; 16 g ai/ha, 0 to 100 scale", "result": 0}, {"measurement": "Corn plant response rating (0-100)", "setting": "[25]; [31]", "result": 0}, {"measurement": "Barnyardgrass plant response rating", "setting": "[26]; 16 g ai/ha, 0 to 100 scale", "result": 0}, {"measurement": "Barnyardgrass plant response rating (0-100)", "setting": "[26]; [31]", "result": 0}, {"measurement": "Kochia plant response rating", "setting": "[27]; 16 g ai/ha, 0 to 100 scale", "result": 0}, {"measurement": "Kochia plant response rating (0-100)", "setting": "[27]; [31]", "result": 0}, {"measurement": "Pigweed, Palmer plant response rating", "setting": "[28]; 16 g ai/ha, 0 to 100 scale", "result": 0}, {"measurement": "Pigweed, Palmer plant response rating (0-100)", "setting": "[28]; [31]", "result": 0}]}
